Data taken from ChEMBL document CHEMBL1201862, “PubChem BioAssay data set” (2004).
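Growth conditions: 96-well plates. Treatment: test compound, 48 hours, 5 concentrations. Analysis: linear interpolation between bracketing concentrations; unreached endpoints set to highest concentration. Abbreviation: GI50, concentration required for 50% inhibition of growth.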 Active and inactive are the calls of the source. No stated cut-off is given here; in the data, active = GI50 up to about 1.1 µM and inactive = higher.

Tests used:
Assay in all cases: NCI-60 cell line screen, 48 h
[1] = tested on: HOP-18
[2] = tested on: DMS-273
[3] = tested on: KM-20L2
[4] = tested on: LXFL 529
[5] = tested on: K562
[6] = tested on: IGROV-1
[7] = tested on: KM12
[8] = tested on: HOP-92
[9] = tested on: UACC-257
[10] = tested on: HOP-62
[11] = tested on: SN12C
[12] = tested on: UACC-62
[13] = tested on: Malme-3M
[14] = tested on: HT-29
[15] = tested on: M19-MEL
[16] = tested on: SR
[17] = tested on: RXF 631
[18] = tested on: CCRF-CEM
[19] = tested on: NCI-H460
[20] = tested on: U-251
[21] = tested on: NCI-H522
[22] = tested on: MOLT-4
[23] = tested on: DLD-1
[24] = tested on: OVCAR-8
[25] = tested on: HCT-15
[26] = tested on: SF-539
[27] = tested on: TK-10
[28] = tested on: HCT-116
[29] = tested on: SF-295
[30] = tested on: SK-MEL-28
[31] = tested on: SNB-19
[32] = tested on: OVCAR-5
[33] = tested on: SK-MEL-5
[34] = tested on: OVCAR-4
[35] = tested on: 786-0
[36] = tested on: LOX IMVI
[37] = tested on: COLO 205
[38] = tested on: SK-OV-3
[39] = tested on: ACHN
[40] = tested on: NCI-H23
[41] = tested on: SW-620
[42] = tested on: HCC 2998
[43] = tested on: RPMI-8226
[44] = tested on: SNB-75
[45] = tested on: CAKI-1
[46] = tested on: NCI-H226
[47] = tested on: XF498
[48] = tested on: HL-60
[49] = tested on: A549
[50] = tested on: M14
[51] = tested on: EKVX
[52] = tested on: SK-MEL-2
[53] = tested on: OVCAR-3
[54] = tested on: UO-31
[55] = tested on: DMS-114
[56] = tested on: RXF 393

C=CCC1C(=O)CC2(C)C(CC=C)C(=O)CC12C (centres undefined)
GI50 [1]: > 100 µM (inactive) | GI50 [2]: > 100 µM (inactive) | GI50 [3]: > 100 µM (inactive) | GI50 [4]: > 100 µM (inactive) | GI50 [5]: > 100 µM (inactive) | GI50 [6]: > 100 µM (inactive) | GI50 [7]: > 100 µM (inactive) | GI50 [8]: > 100 µM (inactive) | GI50 [9]: > 100 µM (inactive) | GI50 [10]: > 100 µM (inactive) | GI50 [11]: > 100 µM (inactive) | GI50 [12]: > 100 µM (inactive) | GI50 [13]: > 100 µM (inactive) | GI50 [14]: > 100 µM (inactive) | GI50 [15]: > 100 µM (inactive) | GI50 [16]: > 100 µM (inactive) | GI50 [17]: > 100 µM (inactive) | GI50 [18]: > 100 µM (inactive) | GI50 [19]: > 100 µM (inactive) | GI50 [20]: > 100 µM (inactive) | GI50 [21]: > 100 µM (inactive) | GI50 [22]: > 100 µM (inactive) | GI50 [23]: > 100 µM (inactive) | GI50 [24]: > 100 µM (inactive) | GI50 [25]: > 100 µM | GI50 [26]: > 100 µM (inactive) | GI50 [27]: > 100 µM (inactive) | GI50 [28]: > 100 µM (inactive) | GI50 [29]: > 100 µM (inactive) | GI50 [30]: > 100 µM (inactive) | GI50 [31]: > 100 µM (inactive) | GI50 [32]: > 100 µM (inactive) | GI50 [33]: > 100 µM (inactive) | GI50 [34]: > 100 µM (inactive) | GI50 [35]: > 100 µM (inactive) | GI50 [36]: > 100 µM (inactive) | GI50 [37]: > 100 µM (inactive) | GI50 [38]: > 100 µM (inactive) | GI50 [39]: > 100 µM (inactive) | GI50 [40]: > 100 µM (inactive) | GI50 [41]: > 100 µM (inactive) | GI50 [42]: > 100 µM (inactive) | GI50 [43]: > 100 µM (inactive) | GI50 [44]: > 100 µM (inactive) | GI50 [45]: > 100 µM (inactive) | GI50 [46]: > 100 µM (inactive) | GI50 [47]: > 100 µM (inactive) | GI50 [48]: > 100 µM (inactive) | GI50 [49]: > 100 µM (inactive) | GI50 [50]: > 100 µM (inactive) | GI50 [51]: > 100 µM (inactive) | GI50 [52]: > 100 µM (inactive) | GI50 [53]: > 100 µM (inactive) | GI50 [54]: > 100 µM (inactive)

O=[N+]([O-])c1cccc(C(O)/C(=N/O)c2nc3ccc(Cl)cc3nc2O)c1 (centres undefined)
GI50 [1]: > 100 µM (inactive) | GI50 [3]: > 100 µM (inactive) | GI50 [4]: > 100 µM (inactive) | GI50 [55]: > 100 µM (inactive) | GI50 [5]: > 100 µM (inactive) | GI50 [6]: > 100 µM (inactive) | GI50 [7]: > 100 µM (inactive) | GI50 [8]: > 100 µM (inactive) | GI50 [9]: > 100 µM (inactive) | GI50 [10]: > 100 µM (inactive) | GI50 [11]: > 100 µM (inactive) | GI50 [12]: > 100 µM (inactive) | GI50 [13]: > 100 µM (inactive) | GI50 [14]: > 100 µM (inactive) | GI50 [15]: > 100 µM (inactive) | GI50 [17]: > 100 µM (inactive) | GI50 [18]: > 100 µM (inactive) | GI50 [19]: > 100 µM (inactive) | GI50 [21]: > 100 µM (inactive) | GI50 [22]: > 100 µM (inactive) | GI50 [23]: > 100 µM (inactive) | GI50 [24]: > 100 µM (inactive) | GI50 [26]: > 100 µM (inactive) | GI50 [27]: > 100 µM (inactive) | GI50 [28]: > 100 µM (inactive) | GI50 [29]: > 100 µM (inactive) | GI50 [30]: > 100 µM (inactive) | GI50 [31]: > 100 µM (inactive) | GI50 [32]: > 100 µM (inactive) | GI50 [33]: > 100 µM (inactive) | GI50 [34]: > 100 µM (inactive) | GI50 [35]: > 100 µM (inactive) | GI50 [36]: > 100 µM (inactive) | GI50 [37]: > 100 µM (inactive) | GI50 [38]: > 100 µM (inactive) | GI50 [39]: > 100 µM (inactive) | GI50 [40]: > 100 µM (inactive) | GI50 [41]: > 100 µM (inactive) | GI50 [42]: > 100 µM (inactive) | GI50 [43]: > 100 µM (inactive) | GI50 [44]: > 100 µM (inactive) | GI50 [46]: > 100 µM (inactive) | GI50 [47]: > 100 µM (inactive) | GI50 [48]: > 100 µM (inactive) | GI50 [49]: > 100 µM (inactive) | GI50 [50]: > 100 µM (inactive) | GI50 [51]: > 100 µM (inactive) | GI50 [56]: > 100 µM (inactive) | GI50 [53]: > 100 µM (inactive) | GI50 [54]: > 100 µM (inactive)
